Results on three compounds are retold here after ChEMBL document CHEMBL3085767, “Polypharmacology - foe or friend?” (J Med Chem, 2013).

The target in experiment [1] is D(2) dopamine receptor (Homo sapiens, UniProt P14416). Briefly: Binding affinity to dopamine D2 receptor (unknown origin) by radioligand binding assay.
Experiment [2] has as its target T1, Adrenergic receptor alpha-1 (Homo sapiens, UniProt P35348+P25100+P35368).
T1 sequence (P35348 whole entry): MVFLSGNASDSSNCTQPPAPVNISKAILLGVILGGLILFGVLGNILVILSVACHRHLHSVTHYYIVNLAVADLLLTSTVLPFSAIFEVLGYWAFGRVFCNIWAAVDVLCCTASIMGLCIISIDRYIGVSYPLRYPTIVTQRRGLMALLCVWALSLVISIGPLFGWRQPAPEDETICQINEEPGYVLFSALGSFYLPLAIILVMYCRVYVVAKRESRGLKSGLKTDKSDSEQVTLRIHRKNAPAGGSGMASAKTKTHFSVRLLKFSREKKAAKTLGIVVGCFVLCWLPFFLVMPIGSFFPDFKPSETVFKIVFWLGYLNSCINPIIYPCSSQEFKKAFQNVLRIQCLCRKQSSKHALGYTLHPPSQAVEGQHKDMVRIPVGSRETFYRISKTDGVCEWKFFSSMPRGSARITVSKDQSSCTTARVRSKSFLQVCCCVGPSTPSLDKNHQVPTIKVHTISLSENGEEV
T1 sequence (P25100 whole entry): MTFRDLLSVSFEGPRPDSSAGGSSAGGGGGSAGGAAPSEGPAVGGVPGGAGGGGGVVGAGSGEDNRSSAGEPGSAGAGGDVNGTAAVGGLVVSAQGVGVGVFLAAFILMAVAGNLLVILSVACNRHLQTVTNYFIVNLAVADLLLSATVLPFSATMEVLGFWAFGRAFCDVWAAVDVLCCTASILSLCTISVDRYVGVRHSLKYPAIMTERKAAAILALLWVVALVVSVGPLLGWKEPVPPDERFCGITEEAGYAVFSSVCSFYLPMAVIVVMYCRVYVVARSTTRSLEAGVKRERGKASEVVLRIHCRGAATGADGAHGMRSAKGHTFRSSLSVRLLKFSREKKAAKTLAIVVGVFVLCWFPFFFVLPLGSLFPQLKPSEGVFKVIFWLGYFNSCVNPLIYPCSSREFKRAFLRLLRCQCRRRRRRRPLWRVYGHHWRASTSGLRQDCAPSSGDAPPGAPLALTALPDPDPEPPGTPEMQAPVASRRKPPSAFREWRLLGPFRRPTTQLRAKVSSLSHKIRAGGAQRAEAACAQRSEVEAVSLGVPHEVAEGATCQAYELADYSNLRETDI
T1 sequence (P35368 whole entry): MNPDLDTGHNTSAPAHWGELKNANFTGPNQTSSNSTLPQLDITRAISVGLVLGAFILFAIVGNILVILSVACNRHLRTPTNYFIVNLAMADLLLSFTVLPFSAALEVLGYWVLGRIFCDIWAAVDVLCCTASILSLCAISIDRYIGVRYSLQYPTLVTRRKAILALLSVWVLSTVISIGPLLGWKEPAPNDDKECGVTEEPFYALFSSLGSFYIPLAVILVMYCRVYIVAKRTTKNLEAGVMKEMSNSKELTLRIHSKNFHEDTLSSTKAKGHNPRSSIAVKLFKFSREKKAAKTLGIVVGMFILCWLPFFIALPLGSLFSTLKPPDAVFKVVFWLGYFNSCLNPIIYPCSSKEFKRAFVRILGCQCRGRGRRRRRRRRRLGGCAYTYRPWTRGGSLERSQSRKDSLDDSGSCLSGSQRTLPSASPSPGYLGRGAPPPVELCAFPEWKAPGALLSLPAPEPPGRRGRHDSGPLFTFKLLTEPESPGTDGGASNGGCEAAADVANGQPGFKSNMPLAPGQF
As to the kind of experiment: Binding affinity to adrenergic alpha1 receptor (unknown origin) by radioligand binding assay.

Experiment [3] has as its target 5-hydroxytryptamine receptor 7 (Homo sapiens, UniProt P34969). As to the kind of experiment: Binding affinity to 5HT7 receptor (unknown origin) by radioligand binding assay.

Chain of D(2) dopamine receptor (P14416 whole entry): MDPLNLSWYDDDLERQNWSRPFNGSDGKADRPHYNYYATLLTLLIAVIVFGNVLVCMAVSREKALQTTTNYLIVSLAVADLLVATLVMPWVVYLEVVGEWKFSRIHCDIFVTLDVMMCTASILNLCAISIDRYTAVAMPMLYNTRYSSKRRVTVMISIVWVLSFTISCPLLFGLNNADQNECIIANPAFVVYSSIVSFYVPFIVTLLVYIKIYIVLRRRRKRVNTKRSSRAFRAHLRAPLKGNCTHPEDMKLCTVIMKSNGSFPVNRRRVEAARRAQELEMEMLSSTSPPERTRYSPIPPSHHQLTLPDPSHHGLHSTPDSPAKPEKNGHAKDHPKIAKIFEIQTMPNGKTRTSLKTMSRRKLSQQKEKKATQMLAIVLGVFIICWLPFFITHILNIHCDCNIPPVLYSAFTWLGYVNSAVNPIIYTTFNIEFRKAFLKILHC
Chain of 5-hydroxytryptamine receptor 7 (P34969 whole entry): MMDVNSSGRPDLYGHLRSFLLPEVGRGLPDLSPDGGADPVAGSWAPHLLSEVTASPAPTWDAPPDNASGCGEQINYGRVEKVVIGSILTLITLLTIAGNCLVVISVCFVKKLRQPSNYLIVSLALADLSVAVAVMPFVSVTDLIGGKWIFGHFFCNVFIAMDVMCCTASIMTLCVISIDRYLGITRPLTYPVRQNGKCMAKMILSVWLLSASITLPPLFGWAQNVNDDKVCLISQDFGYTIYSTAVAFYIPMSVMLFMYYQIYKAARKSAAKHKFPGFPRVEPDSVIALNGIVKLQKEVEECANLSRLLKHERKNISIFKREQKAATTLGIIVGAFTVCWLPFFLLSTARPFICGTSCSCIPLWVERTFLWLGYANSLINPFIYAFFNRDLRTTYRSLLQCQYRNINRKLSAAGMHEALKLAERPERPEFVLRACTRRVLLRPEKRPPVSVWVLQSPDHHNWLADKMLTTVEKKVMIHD

As usually defined, the IC50 is the concentration that inhibits the measured activity by half. A higher IC50 goes with weaker potency. Take `CN(C)CCCN1c2ccccc2CCc2ccccc21` [IMIPRAMINE]: in experiment [1], the IC50 was determined as 410 nM.
The compound `CC(CN1c2ccccc2Sc2ccccc21)N(C)C` (centres undefined) [PROMETHAZINE] came in with an IC50 in experiment [1] of 100 nM.
Usually Ki stands for the equilibrium dissociation constant of an inhibitor or competing ligand from its target. As for `O=C1Cc2cc(CCN3CCN(c4nsc5ccccc45)CC3)c(Cl)cc2N1` [ZIPRASIDONE], the values for the Ki in experiment [2] and in experiment [3] were 11 nM and 6 nM, respectively.
